This note sets out measurements from US20250041380A1, “R[…] FOR SARS-COV2 DISEASE” (priority 2021, published 2025).

One assay deals with Immune cells (THP-1). It counts as cell-based, Human.
The next assay relates to Lung cells (A549). In kind it is cell-based, Human.

Structures are written as SMILES. Read-outs that look alike come from different tables or passages of the source.

As for `CCN(CCO)CCCC(C)Nc1ccnc2cc(Cl)ccc12` (centres unmarked) [Hydroxychloroquine sulphate], the “Inhibition of IL-6” value turned out to be 90.7% in the assay with Immune cells (THP-1) (0.1 µM); 83.9% in the assay on Immune cells (THP-1) (1 µM); 94.2% with Immune cells (THP-1) (5 µM); 84.5% in the assay with Immune cells (THP-1) (10 µM); 100.0% in the assay with Immune cells (THP-1) (20 µM); 34.7% with Lung cells (A549) (0.1 µM). In addition, the “Inhibition of IL-6” value worked out at 53.4% with Lung cells (A549) (1 µM), 66.5% with Lung cells (A549) (5 µM), 60.7% in the assay on Lung cells (A549) (10 µM) and 71.4% with Lung cells (A549) (20 µM). The “Inhibition of IL-8” value was 23.2% with Immune cells (THP-1) (0.1 µM); 36.8% in the assay on Immune cells (THP-1) (1 µM); 53.4% with Immune cells (THP-1) (5 µM); 53.5% in the assay with Immune cells (THP-1) (10 µM); 36.1% in the assay on Immune cells (THP-1) (20 µM); 54.4% in the assay on Lung cells (A549) (0.1 µM). The “Inhibition of IL-8” value with Lung cells (A549) (1 µM) is given as 40.8%; in the assay on Lung cells (A549) (5 µM), 56.7%; in the assay with Lung cells (A549) (10 µM) it was 44.0%; in the assay with Lung cells (A549) (20 µM), 65.0%.
